Test results taken from patent US5059679A, “Method of selectively sulfating peptides” (Shin-Etsu CHemical Co., Ltd., priority 1988, dated 1991).
Non-standard residues stand in square brackets, D forms with d. Residues, ends and D or L forms follow the SMILES beside them. sY = N[C@@H](Cc1ccc(OS(=O)(=O)O)cc1)C(=O)O

How the values were obtained:
[1] = tested on: blood flow in the pancreas capillary vessel; test: Bioassay in anesthetized dogs: blood flow in the pancreas capillary vessel (laser-Doppler perfusion monitor); type: in vivo, mongrel dogs
Description: The synthetic hCCK-33 was concurrently subjected to the bioassay with synthetic hCCK-8 to determine the activity. The bioassay was carried out by measuring the blood flow in the pancreas capillary vessel and the protein release from pancreas using a group of four mongrel dogs anesthesized with pentobarbital. The blood flow in the pancreas capillary vessel was measured using a laser-Doppler perfusion monitor and the protein concentration in the pancreas was determined according to the method of O. H. Lowry, N. J. Rosebrough, A. L. Farr and R. J. Randall, J. Biol. Chem. 193, 265 (1951). Bolus injections of 1.0, 3.125, 6.25, 12.5, 25, 50, 100 and 200 picomoles per kg body weight of the synthetic hCCK-33 and CCK-8 were given through a femoral vein catheter each at an interval of 60 minutes. […] The increasing effect could be noted even with the lowest dose of 3.125 picomoles/kg and the highest effect was obtained with the dose of 200 picomoles/kg. […] The color intensity by the ninhydrin reaction was determined using a Shimadzu Dual Wavelength TLC Scanner Model CS-900. […] The blood flow in pancreas capillary vessel was monitored using a laser-Doppler perfusion monitor (Model LD 5000 manufactured by Seattle Model Pacific Co., Wash., U.S.A.).

[2] = tested on: protein release from pancreas; test: Bioassay in anesthetized dogs: protein release from pancreas (Lowry method); type: in vivo, mongrel dogs
Description: The synthetic hCCK-33 was concurrently subjected to the bioassay with synthetic hCCK-8 to determine the activity. The bioassay was carried out by measuring the blood flow in the pancreas capillary vessel and the protein release from pancreas using a group of four mongrel dogs anesthesized with pentobarbital. The blood flow in the pancreas capillary vessel was measured using a laser-Doppler perfusion monitor and the protein concentration in the pancreas was determined according to the method of O. H. Lowry, N. J. Rosebrough, A. L. Farr and R. J. Randall, J. Biol. Chem. 193, 265 (1951). Bolus injections of 1.0, 3.125, 6.25, 12.5, 25, 50, 100 and 200 picomoles per kg body weight of the synthetic hCCK-33 and CCK-8 were given through a femoral vein catheter each at an interval of 60 minutes. […] The increasing effect could be noted even with the lowest dose of 3.125 picomoles/kg and the highest effect was obtained with the dose of 200 picomoles/kg. The activity of the synthetic hCCK-33 was 92% of that of the synthetic CCK-8 on the molar basis in respect of the effects on the blood flow in the pancreas capillary vessel and the protein release from pancreas. […] Since the ratio of the activity of the unsulfated hCCK-33 to the activity of CCK-8, taken as unity on the molar basis, was 0.074 in the aforementioned assay with dogs, it was concluded that an important role is played by the sulfated sites in the molecules having influences on the in vivo activity of CCKs. FIG. 6 illustrates the increase in the protein release from pancreas of an anesthetized dog in response to these 3 kinds of CCK-peptides.

[3] = tested on: gastric juice, pepsin release and pancreas secretion; test: Gastric juice, pepsin release and pancreas secretion in living rats; type: in vivo; conditions: living samples of rats
[4] = tested on: excised gastric tissues; test: Stimulation of pepsinogen secretion from excised gastric tissues of guinea pigs; type: cell-based
[5] = Activity compared with swine CCK-33 (test not specified); conditions: conclusion drawn through CCK-8
Description: Bolus injections of 1.0, 3.125, 6.25, 12.5, 25, 50, 100 and 200 picomoles per kg body weight of the synthetic hCCK-33 and CCK-8 were given through a femoral vein catheter each at an interval of 60 minutes. […] The increasing effect could be noted even with the lowest dose of 3.125 picomoles/kg and the highest effect was obtained with the dose of 200 picomoles/kg. The activity of the synthetic hCCK-33 was 92% of that of the synthetic CCK-8 on the molar basis in respect of the effects on the blood flow in the pancreas capillary vessel and the protein release from pancreas. […] Since the ratio of the activity of the unsulfated hCCK-33 to the activity of CCK-8, taken as unity on the molar basis, was 0.074 in the aforementioned assay with dogs, it was concluded that an important role is played by the sulfated sites in the molecules having influences on the in vivo activity of CCKs.

[6] = bolus injection through femoral vein catheter, 1.0-200 picomoles per kg
[7] = bolus injections 1.0-200 picomoles per kg

CC[C@H](C)[C@H](NC(=O)[C@H](CCCNC(=N)N)NC(=O)[C@H](Cc1c[nH]cn1)NC(=O)[C@H](CO)NC(=O)[C@@H]1CCCN1C(=O)[C@H](CC(=O)O)NC(=O)[C@H](CC(C)C)NC(=O)[C@H](CC(N)=O)NC(=O)[C@H](CCC(N)=O)NC(=O)[C@H](CC(C)C)NC(=O)[C@H](CC(N)=O)NC(=O)[C@H](CCCCN)NC(=O)[C@@H](NC(=O)[C@@H](NC(=O)[C@H](CO)NC(=O)[C@H](CCSC)NC(=O)[C@H](CCCNC(=N)N)NC(=O)CNC(=O)[C@H](CO)NC(=O)[C@@H]1CCCN1C(=O)[C@H](C)NC(=O)[C@@H](N)CCCCN)[C@@H](C)CC)C(C)C)C(=O)N[C@@H](CO)C(=O)N[C@@H](CC(=O)O)C(=O)N[C@@H](CCCNC(=N)N)C(=O)N[C@@H](CC(=O)O)C(=O)N[C@@H](Cc1ccc(OS(=O)(=O)O)cc1)C(=O)N[C@@H](CCSC)C(=O)NCC(=O)N[C@@H](Cc1c[nH]c2ccccc12)C(=O)N[C@@H](CCSC)C(=O)N[C@@H](CC(=O)O)C(=O)N[C@@H](Cc1ccccc1)C(N)=O [synthetic hCCK-33] (H-KAPSGRMSIVKNLQNLDPSHRISDRD[sY]MGWMDF-NH2)
activity relative to synthetic CCK-8 on the molar basis, blood flow in the pancreas capillary vessel [1, 6]: 92%
pancreas blood flow, dose dependence [1, 7]: increased in parallel with the dose
dose giving the highest effect ([2]; bolus injection): 200 picomoles/kg
lowest dose at which the increasing effect could be noted ([2]; bolus injection): 3.125 picomoles/kg
activity relative to synthetic CCK-8 on the molar basis, protein release from pancreas [2, 6]: 92%
protein release from pancreas, dose dependence [2, 7]: increased in parallel with the dose
activity relative to CCK-8 on the molar basis, gastric juice, pepsin release and pancreas secretion [3]: about two to three times more active than the CCK-8
activity relative to CCK-8 on the molar basis, stimulation of pepsinogen secretion [4]: about the same as the CCK-8
activity compared with natural swine CCK-33 [5]: comparable with or even higher than
